According to US10752588B2 (The Broad Institute, Inc., priority 2014, dated 2020):
Where two headings read alike, the source gives them in different places.

How the values were obtained:
human D2R/β-arrestin [1] = molecular target: T1, human D2R/β-arrestin (Homo sapiens (Human), UniProt P14416); test: Gi/cAMP agonist assay (Lance Ultra cAMP, Forskolin); format: cell-based; settings: CHO-K1 cell line expressing human D2R/β-arrestin
Summary of the method: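 Cells were plated and incubated before compounds were pin-transferred and incubated for 10 min at 37 °C. Forskolin was then added to stimulate cAMP. cAMP was detected by Lance Ultra TR-FRET using Eu-cAMP tracer and ULight-anti-cAMP antibody.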

human D2R/β-arrestin [2] = molecular target: T1, human D2R/β-arrestin; test: β-Arrestin agonist assay (PathHunter); format: cell-based; settings: CHO-K1 cell line expressing human D2R/β-arrestin
Summary of the method: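 After compound incubation, detection reagent (Buffer:Emerald II:Galactor-Star, 19:5:1) added and luminescence or fluorescence read.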

human D2R/β-arrestin [3] = molecular target: T1, human D2R/β-arrestin; settings: read-out: β-arrestin Antagonist
human D2R/β-arrestin [4] = molecular target: T1, human D2R/β-arrestin; test: cell-based; settings: cAMP Antagonist
human D2R/β-arrestin [5] = molecular target: T1, human D2R/β-arrestin; test: cell-based; settings: β-arrestin Antagonist, CHO-K1 cell line expressing human D2R/β-arrestin; quinpirole used as agonist
human D2R/β-arrestin [6] = molecular target: T1, human D2R/β-arrestin; settings: read-out: cAMP Antagonist; CHO-K1 cell line expressing human D2R/β-arrestin; quinpirole used as agonist
[7] = Microsomal stability, mouse
[8] = CHO-K1 cell line expressing human D2R/β-arrestin, quinpirole used as agonist

T1 sequence (P14416 whole entry): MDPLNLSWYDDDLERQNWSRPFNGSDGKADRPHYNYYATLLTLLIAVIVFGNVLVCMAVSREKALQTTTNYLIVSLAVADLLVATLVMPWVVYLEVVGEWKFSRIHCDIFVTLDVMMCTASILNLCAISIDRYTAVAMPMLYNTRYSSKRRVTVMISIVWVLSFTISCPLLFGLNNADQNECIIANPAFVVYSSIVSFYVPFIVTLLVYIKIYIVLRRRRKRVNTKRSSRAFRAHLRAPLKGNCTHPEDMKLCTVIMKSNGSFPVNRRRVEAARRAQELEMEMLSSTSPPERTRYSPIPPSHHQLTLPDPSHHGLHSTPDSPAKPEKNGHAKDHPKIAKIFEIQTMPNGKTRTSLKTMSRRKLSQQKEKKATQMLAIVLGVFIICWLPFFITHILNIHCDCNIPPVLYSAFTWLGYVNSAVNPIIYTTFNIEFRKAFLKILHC

O=C(NC(c1ccc(Cl)cc1)c1ccccn1)C1CCN(CCOc2cccc(Cl)c2)CC1 (single isomer, unassigned) [Compound 1b, 1-(2-(3-chlorophenoxy)ethyl)-N-((4-chlorophenyl)(pyridin-2-yl)methyl)piperidine-4-carboxamide]
EC50 (human D2R/β-arrestin [1]): < 100 nM | EC50 (human D2R/β-arrestin [2]): 1 to 10 µM | IC50 (human D2R/β-arrestin [3]; [8]): 1000 to 10000 nM | IC50 (human D2R/β-arrestin [4]; [8]): > 30000 nM

COc1cccc(C(c2ccccn2)N(C)CC2CCN(CCOc3ccccc3)CC2)c1 (single isomer, unassigned) [Compound 76b, 1-(3-methoxyphenyl)-N-methyl-N-((1-(2-phenoxyethyl)piperidin-4-yl)methyl)-1-(pyridin-2-yl)methanamine]
EC50 (human D2R/β-arrestin [1]): 1000 to 10000 nM | EC50 (human D2R/β-arrestin [2]): > 30 µM | IC50 (human D2R/β-arrestin [3]; [8]): 1000 to 10000 nM | IC50 (human D2R/β-arrestin [4]; [8]): 1000 to 10000 nM

COc1cccc(C(c2ccccn2)N(C)CC2CCN(CCOc3ccccc3F)CC2)c1 (single isomer, unassigned) [Compound 77b, N-((1-(2-(2-fluorophenoxy)ethyl)piperidin-4-yl)methyl)-1-(3-methoxyphenyl)-N-methyl-1-(pyridin-2-yl)methanamine]
EC50 (human D2R/β-arrestin [1]): > 30000 nM | IC50 (human D2R/β-arrestin [5]): 1000 to 10000 nM | IC50 (human D2R/β-arrestin [6]): 100 to 1000 nM | EC50 (human D2R/β-arrestin [2]): > 30 µM

Fc1ccccc1C(NCC1CCN(CCOc2ccccc2)CC1)c1ccc(Cl)cc1 (single isomer, unassigned) [Compound 81b, 1-(4-chlorophenyl)-1-(2-fluorophenyl)-N-((1-(2-phenoxyethyl)piperidin-4-yl)methyl)methanamine]
EC50 (human D2R/β-arrestin [1]): > 30000 nM | IC50 (human D2R/β-arrestin [5]): 1000 to 10000 nM | IC50 (human D2R/β-arrestin [6]): 100 to 1000 nM | EC50 (human D2R/β-arrestin [2]): > 30 µM

O=C(NC(c1ccc(Cl)cc1)c1ccncc1F)C1CCN(CCOc2ccccc2F)CC1 (single isomer, unassigned) [Compound 91b, N-((4-chlorophenyl)(3-fluoropyridin-4-yl)methyl)-1-(2-(2-fluorophenoxy)ethyl)piperidine-4-carboxamide]
EC50 (human D2R/β-arrestin [1]): > 30000 nM | IC50 (human D2R/β-arrestin [5]): 100 to 1000 nM | Microsomal Stability: % remaining after 60 minutes [7]: m1% | EC50 (human D2R/β-arrestin [2]): > 30 µM | IC50 (human D2R/β-arrestin [4]; [8]): 100 to 1000 nM

O=C(NC(c1cccc(OC(F)(F)F)c1)c1ccccn1)C1CCN(CCOc2ccccc2F)CC1 (single isomer, unassigned) [Compound 93b, 1-(2-(2-fluorophenoxy)ethyl)-N-(pyridin-2-yl(3-(trifluoromethoxy)phenyl)methyl)piperidine-4-carboxamide]
EC50 (human D2R/β-arrestin [1]): 100 to 1000 nM | Microsomal Stability: % remaining after 60 minutes [7]: m19% | EC50 (human D2R/β-arrestin [2]): > 30 µM | IC50 (human D2R/β-arrestin [3]; [8]): 1000 to 10000 nM | IC50 (human D2R/β-arrestin [4]; [8]): > 30000 nM

CC(C1CCN(CCOc2ccccc2)CC1)N(C)C(c1ccc(Cl)cc1)c1ccccn1 (single isomer, unassigned) [Compound 97b, N-((4-chlorophenyl)(pyridin-2-yl)methyl)-N-methyl-1-(1-(2-phenoxyethyl)piperidin-4-yl)ethan-1-amine]
EC50 (human D2R/β-arrestin [1]): 100 to 1000 nM | IC50 (human D2R/β-arrestin [5]): 100 to 1000 nM | Microsomal Stability: % remaining after 60 minutes [7]: m3% | EC50 (human D2R/β-arrestin [2]): > 30 µM | IC50 (human D2R/β-arrestin [4]; [8]): 100 to 1000 nM

CC1(CNC(c2ccc(F)cc2)c2ccccn2)CCN(CCOc2ccccc2C(F)(F)F)CC1 (single isomer, unassigned) [Compound 101b, 1-(4-fluorophenyl)-N-((4-methyl-1-(2-(2-(trifluoromethyl)phenoxy)ethyl)piperidin-4-yl)methyl)-1-(pyridin-2-yl)methanamine]
EC50 (human D2R/β-arrestin [2]): > 30 µM | IC50 (human D2R/β-arrestin [3]; [8]): 100 to 1000 nM

CC(C)N(CC1CCN(CCOc2ccccc2)CC1)C(c1ccc(Cl)cc1)c1ccccn1 (single isomer, unassigned) [Compound 103b, N-((4-chlorophenyl)(pyridin-2-yl)methyl)-N-((1-(2-phenoxyethyl)piperidin-4-yl)methyl)propan-2-amine]
EC50 (human D2R/β-arrestin [1]): < 100 nM | EC50 (human D2R/β-arrestin [2]): 0.1 to 1 µM | IC50 (human D2R/β-arrestin [3]): 100 to 1000 nM | IC50 (human D2R/β-arrestin [4]): > 30000 nM

Clc1ccc(C(c2ccccn2)N2CCC3(CCN(CCOc4ccccc4)CC3)C2)cc1 (single isomer, unassigned) [Compound 105a, 2-((4-chlorophenyl)(pyridin-2-yl)methyl)-8-(2-phenoxyethyl)-2,8-diazaspiro[4.5]decane]
EC50 (human D2R/β-arrestin [1]): < 100 nM | IC50 (human D2R/β-arrestin [5]): 100 to 1000 nM | Microsomal Stability: % remaining after 60 minutes [7]: m1% | EC50 (human D2R/β-arrestin [2]): 0.1 to 1 µM | IC50 (human D2R/β-arrestin [4]; [8]): > 30000 nM

Clc1ccc(C(c2ccccn2)N2CCC3(CCN(CCOc4ccccc4)CC3)C2)cc1 (single isomer, unassigned) [Compound 105b, 2-((4-chlorophenyl)(pyridin-2-yl)methyl)-8-(2-phenoxyethyl)-2,8-diazaspiro[4.5]decane]
EC50 (human D2R/β-arrestin [1]): 100 to 1000 nM | IC50 (human D2R/β-arrestin [5]): 1000 to 10000 nM | IC50 (human D2R/β-arrestin [6]): > 30000 nM | EC50 (human D2R/β-arrestin [2]): 1 to 10 µM

O=C(NC(c1ccc2c(c1)OC(F)(F)O2)c1ccccn1)C1CCN(CCOc2ccc(F)cc2F)CC1 (single isomer, unassigned) [Compound 130b, N-((2,2-difluorobenzo[d][1,3]dioxol-5-yl)(pyridin-2-yl)methyl)-1-(2-(2,4-difluorophenoxy)ethyl)piperidine-4-carboxamide]
EC50 (human D2R/β-arrestin [1]): < 100 nM | EC50 (human D2R/β-arrestin [2]): 0.1 to 1 µM | IC50 (human D2R/β-arrestin [3]; [8]): 1000 to 10000 nM | IC50 (human D2R/β-arrestin [4]; [8]): > 30000 nM

CN(CC1CCN(CCOc2ccccc2F)CC1)C(c1ccc2c(c1)OCO2)c1ccccn1 (single isomer, unassigned) [Compound 138b, 1-(benzo[d][1,3]dioxol-5-yl)-N-((1-(2-(2-fluorophenoxy)ethyl)piperidin-4-yl)methyl)-N-methyl-1-(pyridin-2-yl)methanamine]
EC50 (human D2R/β-arrestin [1]): < 100 nM | EC50 (human D2R/β-arrestin [2]): > 30 µM | IC50 (human D2R/β-arrestin [3]; [8]): 100 to 1000 nM | IC50 (human D2R/β-arrestin [4]; [8]): < 100 nM

Fc1ccccc1OCCN1CCC(CNC(c2ccc3c(c2)OCO3)c2ccccn2)CC1 (single isomer, unassigned) [Compound 139b, 1-(benzo[d][1,3]dioxol-5-yl)-N-((1-(2-(2-fluorophenoxy)ethyl)piperidin-4-yl)methyl)-1-(pyridin-2-yl)methanamine]
EC50 (human D2R/β-arrestin [1]): 100 to 1000 nM | IC50 (human D2R/β-arrestin [5]): 1000 to 10000 nM | IC50 (human D2R/β-arrestin [6]): 100 to 1000 nM | EC50 (human D2R/β-arrestin [2]): > 30 µM

COc1cccc(C(NC(=O)C2CCN(CCOc3ccccc3)CC2)c2ccccc2)c1 (stereo not shown) [Compound 46]
EC50 (human D2R/β-arrestin [2]): > 30 µM | IC50 (human D2R/β-arrestin [3]; [8]): 1000 to 10000 nM

CN(C(=O)C1CCN(CCOc2ccccc2)CC1)C(c1ccc(Cl)cc1)c1ccccn1 (stereo not shown) [Compound 51, N((4-chlorophenyl)(pyridin-2-yl)methyl)-N-methyl-1-(2-phenoxyethyl) piperidine-4-carboxamide]
EC50 (human D2R/β-arrestin [1]): 100 to 1000 nM | IC50 (human D2R/β-arrestin [5]): 1000 to 10000 nM | Microsomal Stability: % remaining after 60 minutes [7]: m0% | EC50 (human D2R/β-arrestin [2]): > 30 µM | IC50 (human D2R/β-arrestin [4]; [8]): > 30000 nM

O=C(NC(c1cccc(OC(F)(F)F)c1)c1ccccn1)C1CCN(CCOc2ccccc2F)CC1 (stereo not shown) [Compound 93, 1-(2-(2-fluorophenoxy)ethyl)-N-(pyridin-2-yl(3-(trifluoromethoxy)phenyl)methyl)piperidine-4-carboxamide]
EC50 (human D2R/β-arrestin [1]): < 100 nM | IC50 (human D2R/β-arrestin [5]): 100 to 1000 nM | Microsomal Stability: % remaining after 60 minutes [7]: m12% | EC50 (human D2R/β-arrestin [2]): > 30 µM | IC50 (human D2R/β-arrestin [4]; [8]): > 30000 nM

O=C(NC(c1ccc(Cl)cc1)c1ccccc1F)C1CCN(CCOc2ccccc2F)CC1 (stereo not shown) [Compound 96, N-((4-chlorophenyl)(2-fluorophenyl)methyl)-1-(2-(2-fluorophenoxy)ethyl) piperidine-4-carboxamide]
EC50 (human D2R/β-arrestin [1]): 100 to 1000 nM | IC50 (human D2R/β-arrestin [5]): 100 to 1000 nM | Microsomal Stability: % remaining after 60 minutes [7]: m26% | EC50 (human D2R/β-arrestin [2]): > 30 µM | IC50 (human D2R/β-arrestin [4]; [8]): 100 to 1000 nM

Clc1ccc(C(OCC2CCN(CCOc3ccccc3)CC2)c2ccccn2)cc1 (stereo not shown) [Compound 99, 2-((4-chlorophenyl)((1-(2-phenoxyethyl)piperidin-4-yl)methoxy)methyl)pyridine]
EC50 (human D2R/β-arrestin [1]): 100 to 1000 nM | IC50 (human D2R/β-arrestin [5]): 1000 to 10000 nM | Microsomal Stability: % remaining after 60 minutes [7]: m7% | EC50 (human D2R/β-arrestin [2]): > 30 µM | IC50 (human D2R/β-arrestin [4]; [8]): > 30000 nM

Clc1ccc(C(c2ccccn2)N2CC3(CCN(CCOc4ccccc4)CC3)C2)cc1 (stereo not shown) [Compound 104, 2-((4-chlorophenyl)(pyridin-2-yl)methyl)-7-(2-phenoxyethyl)-2,7-diazaspiro[3.5]nonane]
EC50 (human D2R/β-arrestin [1]): 1000 to 10000 nM | IC50 (human D2R/β-arrestin [5]): 10000 to 30000 nM | Microsomal Stability: % remaining after 60 minutes [7]: m45% | EC50 (human D2R/β-arrestin [2]): > 30 µM | IC50 (human D2R/β-arrestin [4]; [8]): > 30000 nM

CC(C)N(CC1CCN(CCOc2ccc(F)cc2)CC1)C(c1ccc(Cl)cc1)c1ccccn1 (stereo not shown) [Compound 135, N-((4-chlorophenyl)(pyridin-2-yl)methyl)-N-((1-(2-(4-fluorophenoxy)ethyl)piperidin-4-yl)methyl)propan-2-amine]
EC50 (human D2R/β-arrestin [1]): > 30000 nM | IC50 (human D2R/β-arrestin [5]): 1000 to 10000 nM | Microsomal Stability: % remaining after 60 minutes [7]: m2% | EC50 (human D2R/β-arrestin [2]): > 30 µM | IC50 (human D2R/β-arrestin [4]; [8]): 100 to 1000 nM

CN(CC1CCN(CCOc2ccc(C(F)(F)F)cc2)CC1)C(c1ccc(Cl)cc1)c1ccccn1 (stereo not shown) [Compound 137, 1-(4-chlorophenyl)-N-methyl-1-(pyridin-2-yl)-N-((1-(2-(4-(trifluoromethyl)phenoxy)ethyl)piperidin-4-yl)methyl)methanamine]
EC50 (human D2R/β-arrestin [1]): > 30000 nM | IC50 (human D2R/β-arrestin [5]): 1000 to 10000 nM | Microsomal Stability: % remaining after 60 minutes [7]: m1% | EC50 (human D2R/β-arrestin [2]): > 30 µM | IC50 (human D2R/β-arrestin [4]; [8]): 1000 to 10000 nM

O=C1CCc2ccc(OCCCCN3CCCN(c4cccc(Cl)c4Cl)CC3)nc2N1 [UNC9975, reference compound]
EC50 (human D2R/β-arrestin [1]): < 100 nM | IC50 (human D2R/β-arrestin [5]): 100 to 1000 nM | EC50 (human D2R/β-arrestin [2]): > 30 µM | IC50 (human D2R/β-arrestin [4]; [8]): 100 to 1000 nM

Clc1cccc(C2CCN(CCCOc3ccc4scnc4c3)CC2)c1Cl [UNC9994, reference compound]
EC50 (human D2R/β-arrestin [1]): < 100 nM | IC50 (human D2R/β-arrestin [5]): 100 to 1000 nM | EC50 (human D2R/β-arrestin [2]): 0.1 to 1 µM | IC50 (human D2R/β-arrestin [4]; [8]): > 30000 nM
